US20100130598A1, “METHODS FOR INDUCING PROGRAMMED CELL DEATH” (Novogen Research Pty Ltd., priority 2008, published 2010)

Experiments:
PANC-1 cells = test: Apoptosis/necrosis by FACS (Annexin-V-FITC/PI), PANC-1; assay type: cell-based, human; conditions: PANC-1, dose-escalating, 48 hr exposure
Procedure: (§1) Cells. Human pancreatic cell lines HPAC, MIAPaCa-2 and PANC-1 were obtained from the ATCC. (Manassas, Va.). The cells were maintained in DMEM media with Gln and high glucose (Mediatech, Manassas, Va.) with 10% fetal bovine serum (FBS, HyClone, Logan, Utah) and pencillin/streptomycin.
(§2) FACS Analysis. Apoptosis was measured by FACS analysis using Annexin-V-FITC and propidium iodide (PI) (Biovision, Mountain View, Calif.) as probes (Ahn et al., 2003). Mitochondrial membrane potential was measured by FACS analysis using JC-1 (Biovision) as a probe (Ahn et al., 2003). Cell cycle was analyzed on ethanol-fixed, RNaseA-treated cells staining with PI. In each spectrum, 10,000 gated events were recorded and analyzed with a FACSCalibur (BD Biosciences. San Jose, Calif.). All experiments were done in triplicate, error bars represent one standard deviation. Caspase inhibitor I (zVAD-fmk) was obtained from Calbiochem.

HPAC cells [1] = test: Mitochondrial membrane potential by FACS (JC-1), HPAC; assay type: cell-based, human; conditions: dose-dependent, 48 hrs of treatment
Procedure: as §1, §2

HPAC cells [2] = test: Western blot analysis of apoptosis regulatory proteins, p21 and p53, HPAC; assay type: cell-based, human; conditions: 10 μM
Source text: as §1
Antibodies. Antibodies utilised in this study specific to p53 and, p21 were obtained from (Calbiochem, EMD, San Diego, Calif.), Caspase 9, XIAP, COX IV, Bcl2 and Akt (Cell Signaling Technology, Danvers, Mass.), Caspase 2, Cytochrome c and Bid (BD Pharmingen, San Diego, Calif.). GAPDH (RDI, Concord, Mass.) or β-actin (Sigma, St. Louis, Mo.) was used as a housekeeping gene to standardize the protein loading on the gels and blots.
Western blot analysis. Cells were seeded on 100 mm tissue culture plates and grown overnight to ˜90% confluence. Cells were then treated with the drug combinations for indicated time points. After the final treatment step, the cells were lysed with 500 μL of a lysis buffer containing 1% Nonidet P-40, 0.1% SDS, 0.5% deoxycholate, 150 mM NaCl, 50 mM Tris-HCl pH7.5, 1 mM EDTA, 1 mM PMSF and protease inhibitors (Roche) on ice for 30 minutes. Cell lysates were harvested with a sterile cell scraper and centrifuged at 15,000×g for 15 minutes to remove cell debris. Protein was assayed by the BCA method (Pierce) and 50 μg aliquots were separated on 12%, T, 2.6%C SDS-PAGE gels. Proteins were electrophoretically transferred to PVDF membranes (Immobilon P, Millipore, Billerica, Mass.) by the wet transfer method. These membranes were probed with specific antibodies and with anti-GAPDH which was used as the housekeeping gene to standardize the protein loading. The blots were developed on X-ray films using HRP-conjugated secondary antibodies (Southern Biotech, Birmingham, Ala.) and a chemiluminescent substrate (ECL, Amersham, N.Y.).

MIAPaCa-2 cells = test: Mitochondrial membrane potential by FACS (JC-1), MIAPaCa-2; assay type: cell-based, human; conditions: MIAPaCa-2, dose-dependent, 48 hrs of treatment
Procedure: as §1, §2

Bid, Bax, Beclin-1 = test: Western blot of cell lysates and mitochondrial fractions for Bid, Bax, Beclin-1; assay type: cell-based, human; conditions: EOC cells
Source text: (§3) Protein preparation and cellular fractionation. After drug treatment, protein was extracted and measured as previously described (Alvero et al, 2006). For separation of the cytoplasmic and mitochondrial fractions, cell pellets were processed using the ApoAlert™ Cell Fractionation Kit (BD Biosciences, San Jose, Calif.) according to the manufacturer's instructions. For separation of the cytoplasmic and nuclear fractions, pellets were processed using NE-PER Nuclear and Cytoplasmic Extraction (Pierce Biotechnology, Inc., Rockford, Ill.).
SDS-PAGE and Western blots. Cell lysates (20 μg protein) were denatured in sample buffer (2.5% SDS, 10% glycerol, 5% β-mercapto-ethanol, 0.15 M Tris (pH=6.8) and 0.01% bromophenol blue) and subjected to 12% SDS-PAGE as previously described (Kamsteeg et al, 2003). The following antibodies and concentrations were used: mouse anti-XIAP (BD, 1:1,000), rabbit anti-MAP LC3 (1:200), rabbit anti-actin (Sigma, 1:10,000), rabbit anti-phosphorylated Akt (Cell Signaling, 1:1,000), rabbit anti-Akt (Cell Signaling, 1:1000), rabbit anti-phosphorylated mTOR (Cell Signaling, 1:1000), rabbit anti-mTOR (Cell Signaling, 1:1000), rabbit anti-cytochrome c (Clontech Laboratories, Inc, Mountainview, Calif., 1:100), rabbit anti-Omi (R&D Systems, Minneapolis, Minn., 1:5000), rabbit anti-Bid (Cell Signaling, 1:1000), mouse anti-Bax (BD Pharmingen, 1:250), rabbit anti-VDAC (Sigma Aldrich, 1:2000), mouse anti-Bcl2 (BD Pharmingen, 1:500), rabbit anti-AIF (Sigma Aldrich, 1:1000), rabbit anti-EndoG (Sigma Aldrich, 1:1000), mouse anti-topoisomerase I (BD Pharmingen, 1:10,000). Proteins were visualized using enhanced chemiluminescence (Pierce, Rockford Ill.).

EndoG = test: Immunohistochemistry of xenograft tumors for EndoG; assay type: in vivo, NCR nude mice; conditions: paraffin-embedded tumor sections; control tumors only cytoplasmic staining
Procedure: Mouse xenograft studies. The in vivo study as approved by the Yale University Institutional Animal Care & Use Committee. Cells (1×10^6 cells) were resuspended in 200 μ1 total volume of 50% RPMI and 50% BD Matrigel Matrix (BD Biosciences, Bedford, Mass.) and injected subcutaneously into the right flank of NCR nude mice. Intra-peritoneal therapy commenced eight days post-inoculation as follows: Paclitaxel 10 mg/kg q×3d, Carboplatin 40 mg/kg q×7d, and Compound 1 in 20% HPBCD, 100 mg/kg every day. Control groups received 20% HPBCD in PBS. Mice were treated and observed for 3 weeks. Tumor size was determined by caliper measurements and anti-tumor activity was analyzed with respect to maximal tumor inhibition (treated/control, T/C) as described previously (Kamsteeg et al, 2003).
Immunohistochemistry. Immunohistochemistry was performed as described previously (Kelly et al, 2006) using rabbit anti-EndoG (Lifespan Biosciences, Seattle, Wash.) at 1:100 dilution.

[3] = system: ribosomal p70 S6 kinase (p-S6k); test: Western blot of EOC whole cell lysates for p-S6k; assay type: cell-based, human; conditions: EOC cells, 10 g/ml (as printed, FIG. 3 legend), 15 mins post-treatment
Source text: as §3
SDS-PAGE and Western blots. Cell lysates (20 μg protein) were denatured in sample buffer (2.5% SDS, 10% glycerol, 5% β-mercapto-ethanol, 0.15 M Tris (pH=6.8) and 0.01% bromophenol blue) and subjected to 12% SDS-PAGE as previously described (Kamsteeg et al, 2003). […]

SMILES: COc1ccc(C2c3ccc(O)cc3OCC2c2ccc(O)cc2)cc1 (stereo not shown) [Compound 10, 3-(4-hydroxyphenyl)-4-(4-methoxyphenyl)chroman-7-ol]
- apoptosis (PANC-1 cells): induced apoptosis in a dose-dependent fashion
- necrosis (PANC-1 cells): Very little necrosis
- mitochondrial depolarization (HPAC cells [1]): depolarized
- expression of p53 (HPAC cells [2]; HPAC (wild type p53), by 48 hr): elevated
- Bid cleavage (HPAC cells [2]; HPAC): transitory increase
- Caspase 2 cleavage (HPAC cells [2]; HPAC): cleaved to a lesser extent
- cleavage of Caspase 3 (HPAC cells [2]; HPAC): did not cause significant cleavage
- level of XIAP (HPAC cells [2]; HPAC): reduced
- levels of Bcl2 (HPAC cells [2]; HPAC): lowered
- p21 (HPAC cells [2]; HPAC): essentially unchanged
- total Akt (HPAC cells [2]; HPAC, early timepoint (4 hr)): reduced
- cleaved caspase 9 (17kd) (HPAC cells [2]; HPAC, time course 0-48 hrs): initial drop in cleaved caspase 9 (17kd) followed by an increase after 16 hr
- mitochondrial depolarization (MIAPaCa-2 cells): depolarized

SMILES: COc1ccc(C2c3ccc(O)c(C)c3OCC2c2ccc(O)cc2)cc1 (stereo not shown) [Compound 1, 3-(4-hydroxyphenyl)-4-(4-methoxyphenyl)-8-methylchroman-7-ol]
- mitochondrial translocation of Bax (Bid, Bax, Beclin-1; 10 μg/ml, 2 h post-treatment): induces mitochondrial translocation
- Beclin-1 translocation to the mitochondria (Bid, Bax, Beclin-1; 10 μg/ml, as early as 1 h post-treatment): translocates to the mitochondria
- activation of Bid (Bid, Bax, Beclin-1; 10 μg/ml, total cell lysates): does not induce
- Beclin-1 message or protein expression (RT-PCR, whole cell lysates) (Bid, Bax, Beclin-1; data not shown): no changes
- localization of EndoG in tumors (EndoG): nuclear localization
- p-S6k level [3]: down-regulated
